Results published in the NIST ThermoML archive (doi:10.1016/j.jct.2018.05.027).

Assay: xn = mol fraction of the nth substance listed
Details: Liquid, Vibrating wire viscometry

CCC(C)O (stereo not drawn) [butan-2-ol] + CC(C)CC(C)(C)C
viscosity [mPa·s]
Details | 293.15 K | 298.15 K | 313.15 K | 333.15 K | 353.15 K
100 kPa, x1 = 0.2999 | 0.6047 | – | 0.4647 | 0.3574 | 0.2785
100 kPa, x1 = 0.5001 | 0.7922 | – | 0.5643 | 0.4132 | 0.3272
100 kPa, x1 = 0.7996 | 1.673 | – | 0.9784 | 0.6203 | 0.4165
100 kPa, x1 = 1 | 3.767 | 3.102 | 1.839 | 1.007 | 0.6198
1000 kPa, x1 = 0.2999 | 0.609 | – | 0.4677 | 0.3614 | 0.2825
1000 kPa, x1 = 0.5001 | 0.797 | – | 0.5722 | 0.4166 | 0.333
1000 kPa, x1 = 0.7996 | 1.707 | – | 0.9858 | 0.631 | 0.4213
1000 kPa, x1 = 1 | 3.813 | 3.123 | 1.862 | 1.023 | 0.6273
5000 kPa, x1 = 0.2999 | 0.6391 | – | 0.4936 | 0.3814 | 0.2981
5000 kPa, x1 = 0.5001 | 0.8463 | – | 0.6074 | 0.4455 | 0.349
5000 kPa, x1 = 0.7996 | 1.793 | – | 1.043 | 0.6669 | 0.4405
5000 kPa, x1 = 1 | 3.978 | 3.28 | 1.947 | 1.078 | 0.6577
10000 kPa, x1 = 0.2999 | 0.6863 | – | 0.5264 | 0.4083 | 0.3222
10000 kPa, x1 = 0.5001 | 0.8968 | – | 0.6501 | 0.4682 | 0.373
10000 kPa, x1 = 0.7996 | 1.913 | – | 1.11 | 0.7064 | 0.4671
10000 kPa, x1 = 1 | 4.235 | 3.462 | 2.041 | 1.133 | 0.6999
20000 kPa, x1 = 0.2999 | 0.7692 | – | 0.5924 | 0.4584 | 0.3642
20000 kPa, x1 = 0.5001 | 1 | – | 0.7349 | 0.5293 | 0.4151
20000 kPa, x1 = 0.7996 | 2.14 | – | 1.253 | 0.7854 | 0.5216
20000 kPa, x1 = 1 | 4.696 | 3.873 | 2.262 | 1.254 | 0.7717
30000 kPa, x1 = 0.2999 | 0.8642 | – | 0.6612 | 0.5124 | 0.4069
30000 kPa, x1 = 0.5001 | 1.131 | – | 0.8188 | 0.6041 | 0.4619
30000 kPa, x1 = 0.7996 | 2.395 | – | 1.4 | 0.8701 | 0.5729
30000 kPa, x1 = 1 | 5.159 | 4.253 | 2.503 | 1.372 | 0.8354
40000 kPa, x1 = 0.2999 | 0.9608 | – | 0.7328 | 0.5669 | 0.4472
40000 kPa, x1 = 0.5001 | 1.247 | – | 0.9032 | 0.6689 | 0.5088
40000 kPa, x1 = 0.7996 | 2.683 | – | 1.559 | 0.9706 | 0.6309
40000 kPa, x1 = 1 | 5.693 | 4.697 | 2.734 | 1.491 | 0.9088
50000 kPa, x1 = 0.2999 | 1.065 | – | 0.8134 | 0.6217 | 0.4904
50000 kPa, x1 = 0.5001 | 1.385 | – | 0.987 | 0.7304 | 0.5576
50000 kPa, x1 = 0.7996 | 2.993 | – | 1.707 | 1.07 | 0.6907
50000 kPa, x1 = 1 | 6.274 | 5.142 | 2.99 | 1.624 | 0.9898
60000 kPa, x1 = 0.2999 | 1.173 | – | 0.8859 | 0.6795 | 0.54
60000 kPa, x1 = 0.5001 | 1.541 | – | 1.082 | 0.7967 | 0.6147
60000 kPa, x1 = 0.7996 | 3.276 | – | 1.869 | 1.172 | 0.7546
60000 kPa, x1 = 1 | 6.831 | 5.553 | 3.237 | 1.759 | 1.07
70000 kPa, x1 = 0.2999 | 1.282 | – | 0.9597 | 0.7435 | 0.5886
70000 kPa, x1 = 0.5001 | 1.7 | – | 1.179 | 0.8604 | 0.6678
70000 kPa, x1 = 0.7996 | 3.645 | – | 2.049 | 1.271 | 0.8214
70000 kPa, x1 = 1 | 7.377 | 6.044 | 3.558 | 1.905 | 1.151
80000 kPa, x1 = 0.2999 | 1.395 | – | 1.04 | 0.8018 | 0.6326
80000 kPa, x1 = 0.5001 | 1.853 | – | 1.272 | 0.9339 | 0.7221
80000 kPa, x1 = 0.7996 | 3.939 | – | 2.23 | 1.387 | 0.8973
80000 kPa, x1 = 1 | 8.056 | 6.544 | 3.841 | 2.081 | 1.242
100000 kPa, x1 = 0.2999 | 1.66 | – | 1.223 | 0.9315 | 0.7318
100000 kPa, x1 = 0.5001 | 2.169 | – | 1.509 | 1.089 | 0.8402
100000 kPa, x1 = 0.7996 | 4.702 | – | 2.621 | 1.613 | 1.046
100000 kPa, x1 = 1 | 9.598 | 7.646 | 4.456 | 2.427 | 1.444
120000 kPa, x1 = 0.2999 | 1.925 | – | 1.414 | 1.057 | 0.8276
120000 kPa, x1 = 0.5001 | 2.516 | – | 1.74 | 1.236 | 0.9461
120000 kPa, x1 = 0.7996 | 5.445 | – | 3.051 | 1.831 | 1.206
120000 kPa, x1 = 1 | 11.31 | 9.053 | 5.179 | 2.716 | 1.644
140000 kPa, x1 = 0.2999 | 2.24 | – | 1.598 | 1.196 | 0.9377
140000 kPa, x1 = 0.5001 | 2.913 | – | 1.973 | 1.408 | 1.069
140000 kPa, x1 = 0.7996 | 6.323 | – | 3.552 | 2.083 | 1.367
140000 kPa, x1 = 1 | 13.38 | 10.43 | 5.933 | 3.099 | 1.845
